Legend:
MC38 tumors [1] = assay: NanoString nCounter PanCancer Immune Profiling Panel gene expression; assay type: in vivo, C57BL/6 mice
Description: Gene expression studies were carried out using excised MC38 tumors (n=20 animals/treatment) isolated from syngeneic C57BL/6 mice treated for 7, 14, or 17 days with HBI-8000 (50 mg/kg, daily), anti-PD-1 (10 mg/kg, biweekly), or the combination of HBI-8000+anti-PD-1 (50 mg/kg, daily, 10 mg/kg, biweekly). At study termination, tumor samples from the treated mice were collected and fixed in formalin for 24 h and transferred to EtOH, followed by the preparation of formalin-fixed paraffin embedded blocks. Tumor sections (5-10 μm) were prepared from the formalin-fixed paraffin-embedded blocks, and total RNA was isolated from tissue scraped from 4 to 6 slides using the protocol recommended by NanoString Technologies (Seattle, Wash.). The nCounter PanCancer Immune Profiling panel developed and provided by NanoString Technologies was initially selected for expression analyses with an additional 20 genes added as a Panel Plus Codeset. The additional genes were predicted to be regulated by HBI-8000+/−ICI treatment. The nCounter assays were performed according to the manufacturer's instructions using the nCounter FLEX system.
Gene expression data were analyzed using nSolver software provided by NanoString Technologies, Inc. Raw data were normalized to the geometric mean values of the internal synthetic positive controls and geometric means of the housekeeping genes, as recommended by the manufacturer. The NanoString Technologies' nSolver Analysis Software 4.0 generated cell type scores, pathway scores, heatmaps, and individual gene normalized data from the nCounter PanCancer Immune Profiling Panel Plus dataset. The cell type score quantifies cell populations using marker genes for given cell types; by centering the mean at 0 for each cell type, immune cell type abundance can be compared on the same scale. The same method was used to generate immune-relevant pathway scores; summarizing the data from multiple genes in a pathway into a single score allowed for comparison between treatments for pathway analysis.
Normalized gene expression data for individual genes was exported from nSolver, annotated with percent of tumor growth inhibition (% TGI), and then imported into GraphPad Prism 7.04.
To investigate the mechanism of action of HBI-8000 in combination therapy with ICIs, larger groups of mice (n=20/group) were implanted with MC38 tumors to sufficiently power the statistical analysis. A baseline no-treatment tumor-bearing group was killed 1 day before initiating treatment. Mice in each treatment arm (n=20) were killed at days 7, 14, and 17 post treatment initiation. The NanoString nCounter PanCancer Immune Profiling Panel analysis allows for clustering of immune response-related genes into “gene sets” comprising a collection of genes selected as being representative of an element of the immune response (i.e., cell type, pathway), and provides a high level view of the antitumor response, which is depicted as scatterplots in FIG. 9A. While all the scores were elevated in the PD-1 Ab plus HBI-8000 combination agent cohorts, it is noteworthy that a subset of cell type scores was augmented by either PD-1 Ab or HBI-8000 alone as early as day 7.

MC38 tumors [2] = assay: model of PD-1 antibody failure or stable disease, second-line therapy; assay type: in vivo; settings: second-line therapy in mice failing PD-1 Ab therapy, n=10/group, end of study
Description: To establish a model of PD-1 antibody failure or stable disease, 150 mice were initially treated biweekly for 3 weeks with first-line anti-PD-1 Ab (5 mg/kg, intraperitoneal administration).
Human cancer patients receiving ICI therapy often experience a transient response or stable disease, but eventually develop resistance and progress, a challenge to which major efforts are directed. […] To explore the effect of HBI-8000 plus ICI on acquired resistance, we developed a model based on the repeated observations that tumor-bearing mice treated initially (first-line) with single agent PD-1 Ab or PD-L1 Ab display […] patterns of growth: approximately 20% experience rapid progression, approximately 20% experience complete regression, and approximately 60% experience stable tumor growth (defined as 3 consecutive tumor volume measurements with no significant change) or slow progression (relative to rapid growth and progression), which somewhat approximates the clinical situation. Using the above model, we treated a large cohort of tumor-bearing mice with PD-1 Ab alone. Once they reached the criteria for stable disease or slow progression, they were randomized into 6 treatment arms as indicated in FIG. 13. We compared the effect of halting treatment (Vehicle), continuing to treat with PD-1 Ab, or continuing PD-1 Ab in combination with HBI-8000. […]

[3] = tolerability, treatment related adverse events (Example 4); assay type: in vivo, human
Description: The tolerability of the compounds of formula I, nivolumab, and a combination of the compounds of formula I and nivolumab were tested. The Phase 2 clinical dosage of 30 mg BIW of the compounds of formula I was administered.

RR/PTCL = RR/PTCL historical benchmark, cited from earlier work
RR/ATL = settings: cited from earlier work; for ORR: RR/ATL historical benchmark

## Nc1cc(F)ccc1NC(=O)c1ccc(CNC(=O)/C=C/c2cccnc2)cc1 [HBI-8000, N-(2-amino-4-fluorophenyl)-4-[[[(2E)-1-oxo-3-(3-pyridinyl)-2-propen-1-yl]amino]methyl]benzamide]
MC38 tumors [1]; as early as day 7
  cell type scores corresponding to dendritic cells, macrophages, NK cells, cytotoxic cells, and CD45 cells: augmented
MC38 tumors [1]; day 17, vs. Control
  directed global significance score, Adaptive: 2
  directed global significance score, Adhesion: 2
  directed global significance score, Antigen processing: 1.8
  directed global significance score, Apoptosis: 1.8
  directed global significance score, B cell Functions: 1.5
  directed global significance score, Basic Cell Function: 1.5
  directed global significance score, CD molecules: 1.7
  directed global significance score, Cancer progression: 1.8
  directed global significance score, Cell cycle: 1.5
  directed global significance score, Chemokine and Receptors: 1.5
  directed global significance score, Class I MHC mediated antigen process: 1.5
  directed global significance score, Complement pathway: 0
  directed global significance score, Costimulation by the CD28 family: 1
  directed global significance score, Cytokines and Receptors: 1.8
  directed global significance score, Dendritic cell Functions: 1.8
  directed global significance score, Humoral: 1.8
  directed global significance score, Inflammation: 1.8
  directed global significance score, Innate: 1.8
  directed global significance score, Interferon: 1.5
  directed global significance score, Interleukin: 1.5
  directed global significance score, Leukocyte Function: 1.8
  directed global significance score, MHC: 1.8
  directed global significance score, MHC class II antigen presentation: 1.8
  directed global significance score, Macrophage function: 1.8
  directed global significance score, Microglial Functions: 3
  directed global significance score, NK cell Function: 1.5
  directed global significance score, Pathogen Receptors: 1.3
  directed global significance score, Senescence: 1.3
  directed global significance score, T-cell Functions: 1.5
  directed global significance score, TLR: 1.5
  directed global significance score, TNF superfamily: 1.5
  directed global significance score, Transporter Function: 1.8
MC38 tumors [2]
  complete response (tumor regression): 2 mice
  partial response: 3 mice
[3]; 63 subjects with AE data
  share of TRAEs associated with the agent: 39%
[3]; G1-2
  Anemia, TRAE: 14 (22) n (% of N)
  Diarrhea, TRAE: 0 n (% of N)
  Fatigue, TRAE: 0 n (% of N)
  Hypophospatemia, TRAE: 6 (10) n (% of N)
  Lymphocyte decrease, TRAE: 0 n (% of N)
  Neutrophil decrease, TRAE: 8 (13) n (% of N)
  Platelet decrease, TRAE: 23 (37) n (% of N)
  WBC decrease, TRAE: 11 (17) n (% of N)
[3]; G3
  Anemia, TRAE: 1 (2) n (% of N)
  Diarrhea, TRAE: 0 n (% of N)
  Fatigue, TRAE: 0 n (% of N)
  Hypophospatemia, TRAE: 4 (6) n (% of N)
  Lymphocyte decrease, TRAE: 0 n (% of N)
  Neutrophil decrease, TRAE: 5 (8) n (% of N)
  Platelet decrease, TRAE: 3 (5) n (% of N)
  WBC decrease, TRAE: 1 (2) n (% of N)
[3]; G4
  Anemia, TRAE: 0 n (% of N)
  Diarrhea, TRAE: 0 n (% of N)
  Fatigue, TRAE: 0 n (% of N)
  Hypophospatemia, TRAE: 0 n (% of N)
  Lymphocyte decrease, TRAE: 0 n (% of N)
  Neutrophil decrease, TRAE: 1 (2) n (% of N)
  Platelet decrease, TRAE: 0 n (% of N)
  WBC decrease, TRAE: 0 n (% of N)

## Nc1cc(F)ccc1NC(=O)c1ccc(CNC(=O)/C=C/c2cccnc2)cc1 [Epidaza (China)]
RR/PTCL; value in brackets (PMS)
  ORR (PMS): 35%
RR/PTCL
  ORR: 28%

## NIVO: fully human monoclonal antibody directed against PD-1
[3]; G1-2
  Anemia, TRAE: 0 n (% of N)
  Diarrhea, TRAE: 4 (6) n (% of N)
  Fatigue, TRAE: 0 n (% of N)
  Hypophospatemia, TRAE: 0 n (% of N)
  Lymphocyte decrease, TRAE: 0 n (% of N)
  Neutrophil decrease, TRAE: 0 n (% of N)
  Platelet decrease, TRAE: 0 n (% of N)
  WBC decrease, TRAE: 0 n (% of N)
[3]; G3
  Anemia, TRAE: 0 n (% of N)
  Diarrhea, TRAE: 1 (2) n (% of N)
  Fatigue, TRAE: 0 n (% of N)
  Hypophospatemia, TRAE: 0 n (% of N)
  Lymphocyte decrease, TRAE: 0 n (% of N)
  Neutrophil decrease, TRAE: 0 n (% of N)
  Platelet decrease, TRAE: 0 n (% of N)
  WBC decrease, TRAE: 0 n (% of N)
[3]; G4
  Anemia, TRAE: 0 n (% of N)
  Diarrhea, TRAE: 0 n (% of N)
  Fatigue, TRAE: 0 n (% of N)
  Hypophospatemia, TRAE: 0 n (% of N)
  Lymphocyte decrease, TRAE: 0 n (% of N)
  Neutrophil decrease, TRAE: 0 n (% of N)
  Platelet decrease, TRAE: 0 n (% of N)
  WBC decrease, TRAE: 0 n (% of N)
[3]; less frequent TRAEs
  TSH increase, TRAE: 5 n
  amylase increase, TRAE: 4 n
  lipase increase, TRAE: 6 n
  rash, TRAE: 10 n

## O=c1[nH]cnc2c([C@@H]3N[C@H](CO)[C@@H](O)[C@H]3O)c[nH]c12 [Forodesine]
RR/PTCL
  ORR: 22%

## Nc1cccc2c1CN(C1CCC(=O)NC1=O)C2=O (centres unmarked) [Lenalidomide]
RR/ATL
  ORR: 42%
RR/ATL; RR/ATL patients who had received mogamulizumab
  ORR in moga patients: 18%

## C#CCC(Cc1cnc2nc(N)nc(N)c2n1)c1ccc(C(=O)N[C@@H](CCC(=O)O)C(=O)O)cc1 (some centres unmarked) [Pralatrexate]
RR/PTCL
  ORR: 45%

B1: Mogamulizumab: RR/ATL treatment listed as historical benchmark (antibody, chains of the INN, looked up, V domains shown)
VH: EVQLVESGGDLVQPGRSLRLSCAASGFIFSNYGMSWVRQAPGKGLEWVATISSASTYSYYPDSVKGRFTISRDNAKNSLYLQMNSLRVEDTALYYCGRHSDGNFAFGYWGQGTLVTVSS
VL: DVLMTQSPLSLPVTPGEPASISCRSSRNIVHINGDTYLEWYLQKPGQSPQLLIYKVSNRFSGVPDRFSGSGSGTDFTLKISRVEAEDVGVYYCFQGSLLPWTFGQGTKVEIK
RR/ATL
  ORR: 50%
